Patent publication US20260070909A1, “GPR65 MODULATORS” (Pathios Therapeutics Limited, priority 2022, published 2026)

What follows are compounds tested against human recombinant GPR65 (Homo sapiens, UniProt Q8IYL9) (assay: Human GPR65 cAMP HTRF antagonist assay). Settings: not given.
Format: cell-based
Text: In one preferred embodiment, the compound prevents the increase in cytoplasmic cAMP levels expected following GPR65 activation at acidic pH. This prevention of cAMP accumulation in turn prevents downstream signalling through ICER, as described above. The “Human GPR65 cyclic adenosine monophosphate (cAMP) Homogeneous Time Resolved Fluorescence (HTRF) antagonist assay”, or simply “cAMP assay”, as described in the accompanying examples, can be used to measure the potency of GPR65 modulators, which is expressed as the concentration of compound required to reduce the increase in cAMP concentration upon GPR65 activation by 50% (i.e. an IC50).
Human GPR65 Cyclic Adenosine Monophosphate (cAMP) Homogeneous Time Resolved Fluorescence (HTRF) Antagonist Assay Procedure
IC50 data was obtained by the following procedure:
1321N1 human astrocytoma cells stably expressing human recombinant GPR65 (1321N1-hrGPR65 cells, EuroscreenFast) were cultured according to the vendor's instructions. Compounds were tested for their ability to antagonise GPR65, through measuring the concentration of cytoplasmic cAMP following treatment of the cells at a pH of 7.2 to activate GPR65 signalling and addition of the compound to be tested. The extent to which the expected rise in cAMP concentration upon GPR65 activation was suppressed by the added compound is indicative of its potency. The assay was carried out according to EuroscreenFast assay Methodology as follows.
On the day of the assay, test compounds were added to 384-well, low volume, white microtiter plates by acoustic dispensing. KRH buffer (5 mM KCl, 1.25 mM MgSO4, 124 mM NaCl, 25 mM HEPES, 13.3 mM Glucose, 1.25 mM KH2PO4 and 1.45 mM CaCl2) was adjusted to pH 6.5, pH 7.6 and pH 8.4 by adding NaOH. 1321N1-hGPR65 cells were rapidly thawed and diluted in KRH, pH 7.6 prior to centrifugation at 300×g for 5 min and resuspension in assay buffer (KRH, pH 7.6, supplemented with 1 mM 3-isobutyl-1-methylxanthine (IBMX) and 200 μM ethylenediaminetetraacetic acid (EDTA)). Cells were added to assay plates at a density of 2,000 cells per well in a volume of 5 μl. Assay plates were briefly centrifuged at 100×g and then incubated at room temperature for 30 min. Cells were stimulated by the addition of 5 μL KRH, pH 6.5, to achieve an assay pH of 7.2, while control wells received 5 μl KRH, pH 8.4 to achieve an assay pH of 7.9. Assay plates were briefly centrifuged at 100×g and then incubated at room temperature for 30 min.
Accumulation of cAMP was detected by cAMP HTRF kit (Cisbio). d2-labeled cAMP and cryptate-labeled anti-cAMP antibody in Lysis and Detection Buffer (Cisbio) were added to assay plates, and the plates were incubated at room temperature for 1 h. HTRF measurements were performed using a Pherastar FSX instrument. Acceptor and donor emission signals were measured at 665 nm and 620 nm, respectively, and HTRF ratios were calculated as signal665 nm/signal620 nm×10^4. Data were normalised to high and low control values and fitted with 4-parameter logistic regression to determine hGPR65 IC50 values for the test compounds, which are shown in Table 1.

human recombinant GPR65, sequence (Q8IYL9 whole entry): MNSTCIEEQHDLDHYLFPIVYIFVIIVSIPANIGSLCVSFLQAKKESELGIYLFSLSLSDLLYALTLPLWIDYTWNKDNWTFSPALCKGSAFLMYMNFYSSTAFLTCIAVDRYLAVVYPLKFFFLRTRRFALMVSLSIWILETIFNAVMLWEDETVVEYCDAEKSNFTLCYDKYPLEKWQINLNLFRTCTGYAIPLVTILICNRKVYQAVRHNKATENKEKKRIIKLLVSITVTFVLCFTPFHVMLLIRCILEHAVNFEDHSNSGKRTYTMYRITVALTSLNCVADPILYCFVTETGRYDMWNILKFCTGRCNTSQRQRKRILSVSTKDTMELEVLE

| Compound | IC50 [µM] |
| --- | --- |
| O=C1NN=C2C(=CC3CCC2N3C(=O)Nc2cc(Cl)c(C(F)(F)F)cc2F)N1 (racemic) [Compound 1, (±)-N-(5-Chloro-2-fluoro-4-(trifluoromethyl)phenyl)-3-oxo-3,4,6,7,8,9-hexahydro-2H-6,9-epiminocyclohepta[e][1,2,4]triazine-10-carboxamide] | < 0.5 |
| O=C1NN=C2C(=CC3CCC2N3C(=O)Nc2cc(Cl)c(-c3cncc(F)c3)cc2F)N1 (racemic) [Compound 2, (±)-N-(5-Chloro-2-fluoro-4-(5-fluoropyridin-3-yl)phenyl)-3-oxo-3,4,6,7,8,9-hexahydro-2H-6,9-epiminocyclohepta[e][1,2,4]triazine-10-carboxamide] | < 0.5 |
| O=C1NN=C2C(=CC3CCC2N3C(=O)Nc2cc(Cl)c(-c3ccc(F)nc3)cc2F)N1 (racemic) [Compound 3, (±)-N-(5-chloro-2-fluoro-4-(6-fluoropyridin-3-yl)phenyl)-3-oxo-3,4,6,7,8,9-hexahydro-2H-6,9-epiminocyclohepta[e][1,2,4]triazine-10-carboxamide] | < 0.5 |
| O=C1NN=C2C(=CC3CCC2N3C(=O)Nc2cc(Cl)c(-c3ccc4nonc4c3)cc2F)N1 (racemic) [Compound 4, (±)-N-(4-(benzo[c][1,2,5]oxadiazol-5-yl)-5-chloro-2-fluorophenyl)-3-oxo-3,4,6,7,8,9-hexahydro-2H-6,9-epiminocyclohepta[e][1,2,4]triazine-10-carboxamide] | < 0.5 |
| O=C(Nc1cc(Cl)c(C(F)(F)F)cc1F)N1[C@@H]2C=C3NC(=S)NN=C3[C@H]1CC2 [Compound 7, (6S,9R)-N-(5-Chloro-2-fluoro-4-(trifluoromethyl)phenyl)-3-thioxo-3,4,6,7,8,9-hexahydro-2H-6,9-epiminocyclohepta[e][1,2,4]triazine-10-carboxamide] | < 0.5 |
| O=C1NN=C2C(=C[C@@H]3CC[C@H]2N3C(=O)Nc2cc(Cl)c(C(F)(F)F)cc2F)N1 [Compound 8, (6S,9R)-N-(5-Chloro-2-fluoro-4-(trifluoromethyl)phenyl)-3-oxo-3,4,6,7,8,9-hexahydro-2H-6,9-epiminocyclohepta[e][1,2,4]triazine-10-carboxamide] | < 0.5 |
| CC(C)Oc1ccc(-c2cc(F)c(NC(=O)N3[C@@H]4C=C5NC(=O)NN=C5[C@H]3CC4)cc2Cl)cn1 [Compound 10, (6S,9R)-N-(5-Chloro-2-fluoro-4-(6-isopropoxypyridin-3-yl)phenyl)-3-oxo-3,4,6,7,8,9-hexahydro-2H-6,9-epiminocyclohepta[e][1,2,4]triazine-10-carboxamide] | < 0.5 |
| O=C1NN=C2C(=C[C@@H]3CC[C@H]2N3C(=O)Nc2cc(Cl)c(-c3ccc(OCC(F)(F)F)nc3)cc2F)N1 [Compound 11, (6S,9R)-N-(5-Chloro-2-fluoro-4-(6-(2,2,2-trifluoroethoxy)pyridine-3-yl)phenyl)-3-oxo-3,4,6,7,8,9-hexahydro-2H-6,9-epiminocyclohepta[e][1,2,4]triazine-10-carboxamide] | < 0.5 |
| O=C1NN=C2C(=C[C@@H]3CC[C@H]2N3C(=O)Nc2cc(Cl)c(-c3ccc4nonc4c3)cc2F)N1 [Compound 13, (6S,9R)-N-(4-(Benzo[c][1,2,5]oxadiazol-5-yl)-5-chloro-2-fluorophenyl)-3-oxo-3,4,6,7,8,9-hexahydro-2H-6,9-epiminocyclohepta[e][1,2,4]triazine-10-carboxamide] | < 0.5 |

Same assay, conditions: 1321N1-hrGPR65 cells, assay pH 7.2, suppression of cAMP rise, HTRF; read-out: hGPR65 IC50 (activity class)

| Compound | IC50 [µM] |
| --- | --- |
| O=C1NN=C2C(=CC3CCC2N3C(=O)Nc2cc(C(F)(F)F)on2)N1 (racemic) [Compound 5, (±)-3-Oxo-N-(5-(trifluoromethyl)isoxazol-3-yl)-3,4,6,7,8,9-hexahydro-2H-6,9-epiminocyclohepta[e][1,2,4]triazine-10-carboxamide] | 0.5 to 5 |
| CS(=O)(=O)c1nnc2c(n1)CC1CCC2N1C(=O)Nc1cc(Cl)c(C(F)(F)F)cc1F (racemic) [Compound 6, (±)-N-(5-Chloro-2-fluoro-4-(trifluoromethyl)phenyl)-3-(methylsulfonyl)-6,7,8,9-tetrahydro-5H-6,9-epiminocyclohepta[e][1,2,4]triazine-10-carboxamide] | 0.5 to 5 |
| O=C1NN=C2C(=C[C@H]3CC[C@@H]2N3C(=O)Nc2cc(Cl)c(C(F)(F)F)cc2F)N1 [Compound 9, (6R,9S)-N-(5-Chloro-2-fluoro-4-(trifluoromethyl)phenyl)-3-oxo-3,4,6,7,8,9-hexahydro-2H-6,9-epiminocyclohepta[e][1,2,4]triazine-10-carboxamide] | 0.5 to 5 |
| O=C1NN=C2C(=C[C@H]3CC[C@@H]2N3C(=O)Nc2cc(Cl)c(-c3ccc4nonc4c3)cc2F)N1 [Compound 12, (6R,9S)-N-(4-(Benzo[c][1,2,5]oxadiazol-5-yl)-5-chloro-2-fluorophenyl)-3-oxo-3,4,6,7,8,9-hexahydro-2H-6,9-epiminocyclohepta[e][1,2,4]triazine-10-carboxamide] | 0.5 to 5 |
